Measured values taken from ChEMBL document CHEMBL2176889, “Design, synthesis, and pharmacological evaluation of monocyclic pyrimidinones as novel inhibitors of PDE5” (J Med Chem, 2012).
The source made the active and inactive calls. The rule behind the calls is not given here.

Tests used:
[1] = tested on: Rattus norvegicus; assay: Increase in intracavernous pressure/blood pressure in Sprague-Dawley rat model of erection at 10 mg/kg, po measured 30 mins post dose; format: functional, organism-based; set-up: dose 10 mg/kg
[2] = Oral bioavailability in Sprague-Dawley rat at 10 mg/kg by LC-MS/MS method; format: ADME, organism-based; details: in vivo
[3] = Inhibition of dog adrenal gland PDE2 by [3H]cGMP based tritium scintillation proximity assay; format: tissue-based, Canis lupus familiaris
[4] = target: High affinity 3',5'-cyclic-AMP phosphodiesterase 7A (Homo sapiens, UniProt Q13946)
[5] = Tmax in Sprague-Dawley rat at 10 mg/kg, po by LC-MS/MS method; format: ADME, organism-based; set-up: dose 10 mg/kg, route oral; details: in vivo
[6] = Half life in Sprague-Dawley rat at 10 mg/kg, po by LC-MS/MS method; format: ADME, organism-based; set-up: dose 10 mg/kg, route oral; details: in vivo
[7] = Cmax in Sprague-Dawley rat at 10 mg/kg, po by LC-MS/MS method; format: ADME, organism-based; set-up: dose 10 mg/kg, route oral; details: in vivo
[8] = AUC (0 to 10 hrs) in Sprague-Dawley rat at 10 mg/kg, po by LC-MS/MS method; format: ADME, organism-based; set-up: time < 10 hr, dose 10 mg/kg, route oral; details: plasma
[9] = MRT (0 to 10 hrs) in Sprague-Dawley rat at 10 mg/kg, po by LC-MS/MS method; format: ADME, organism-based; set-up: dose 10 mg/kg, route oral; details: in vivo
[10] = Half life in Sprague-Dawley rat at 5 mg/kg, iv by LC-MS/MS method; format: ADME, organism-based; set-up: dose 5 mg/kg, route intravenous; details: in vivo
[11] = AUC (0 to 10 hrs) in Sprague-Dawley rat at 5 mg/kg, iv by LC-MS/MS method; format: ADME, organism-based; set-up: time < 10 hr, dose 5 mg/kg, route intravenous; details: plasma
[12] = MRT (0 to 10 hrs) in Sprague-Dawley rat at 5 mg/kg, iv by LC-MS/MS method; format: ADME, organism-based; set-up: dose 5 mg/kg, route intravenous; details: in vivo
[13] = Volume of distribution in Sprague-Dawley rat at 5 mg/kg, iv by LC-MS/MS method; format: ADME, organism-based; set-up: dose 5 mg/kg, route intravenous; details: in vivo
[14] = Clearance in Sprague-Dawley rat at 5 mg/kg, iv by LC-MS/MS method; format: ADME, organism-based; set-up: dose 5 mg/kg, route intravenous; details: in vivo

Sequence of High affinity 3',5'-cyclic-AMP phosphodiesterase 7A (Q13946 whole entry): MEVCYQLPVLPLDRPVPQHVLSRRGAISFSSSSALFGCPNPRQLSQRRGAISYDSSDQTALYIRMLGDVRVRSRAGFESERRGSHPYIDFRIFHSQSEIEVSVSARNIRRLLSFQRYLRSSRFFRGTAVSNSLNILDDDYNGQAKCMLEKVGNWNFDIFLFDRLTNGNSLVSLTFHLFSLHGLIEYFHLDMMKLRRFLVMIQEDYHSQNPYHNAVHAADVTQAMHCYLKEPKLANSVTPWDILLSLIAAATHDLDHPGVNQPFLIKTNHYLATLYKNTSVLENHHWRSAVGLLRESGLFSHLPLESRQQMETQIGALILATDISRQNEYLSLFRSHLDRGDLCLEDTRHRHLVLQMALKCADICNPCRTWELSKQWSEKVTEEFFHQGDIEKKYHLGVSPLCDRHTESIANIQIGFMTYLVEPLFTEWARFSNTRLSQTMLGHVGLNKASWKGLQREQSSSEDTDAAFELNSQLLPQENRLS

Row | SMILES | Activity [1] | bioavailability [2] [%] | IC50 [3] [µM] | IC50 [4] [µM] | Tmax [5] [h] | half-life [6] [h] | Cmax [7] [ng/mL] | AUC(0-t) at 10 h [8] [ng·h/mL] | MRT last [9] [h] | half-life [10] [h] | AUC(0-t) at 10 h [11] [ng·h/mL] | MRT last [12] [h] | Vd [13] [L/kg] | clearance [14] [mL/min/kg]
1 | CCCc1nn(C)c2c(=O)[nH]c(-c3cc(S(=O)(=O)N4CCN(C)CC4)ccc3OCC)nc12 | Active | 23 | > 10 | 4.69 |  |  |  |  |  |  |  |  |  | 
2 | CCCOc1ccc(S(=O)(=O)N2CCN(C)CC2)cc1-c1nc(CC)c(CC)c(=O)[nH]1 | Active | 10 |  |  | 0.25 | 3.94 | 468 | 895 | 3.09 | 1.29 | 4470 | 0.81 | 2.07 | 19.5
